Data published in PubChem BioAssay (NCI).
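Cells were grown in 96-well plates and exposed to each compound for 48 hours at five concentrations; endpoints were interpolated linearly between bracketing concentrations, or set to the highest concentration if not reached. GI50 marks 50% less growth. The concentration for full growth arrest is given as TGI.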

Assays:
Test in all cases: inhibition of tumour cell growth, NCI panel, 48 h
[1] = test system: MOLT-4 leukemia
[2] = test system: SK-MEL-5 melanoma
[3] = test system: KM12 colon
[4] = test system: ACHN renal
[5] = test system: UACC-62 melanoma
[6] = test system: HCT-116 colon
[7] = test system: SNB-19 CNS
[8] = test system: SK-OV-3 ovarian
[9] = test system: DLD-1 colon
[10] = test system: M19-MEL melanoma

| SMILES | GI50 [1] | TGI [1] | GI50 [2] | TGI [2] | GI50 [3] | TGI [3] | GI50 [4] | TGI [4] | GI50 [5] | TGI [5] | GI50 [6] | TGI [6] | GI50 [7] | TGI [7] | GI50 [8] | TGI [8] | TGI [9] | TGI [10] |
| --- | --- | --- | --- | --- | --- | --- | --- | --- | --- | --- | --- | --- | --- | --- | --- | --- | --- | --- |
| O=C1OC(O)[C@@H]2[C@H]1[C@H]1CC[C@@H]2O1 (stereo partly specified) | > 100 µM | > 100 µM | 68.2 µM | > 100 µM | 21.5 µM | 72.8 µM | > 89.6 µM | > 100 µM | > 100 µM | > 100 µM | 42.9 µM | > 100 µM | > 100 µM | > 100 µM | > 100 µM | > 100 µM | – | – |
| Cn1cnc([N+](=O)[O-])c1S(=O)(=O)Oc1cccc2ccccc12 | 3.37 µM | 22.7 µM | 13.7 µM | 28.8 µM | 10.4 µM | 31.4 µM | 1.97 µM | 4.21 µM | 7.12 µM | 20.8 µM | 2.1 µM | 5.11 µM | 29 µM | > 100 µM | 46.9 µM | > 100 µM | – | – |
| CCN(CC)c1ccc(-c2cc(-c3cc(OC)c(OC)c(OC)c3)nc(N3CCOCC3)c2C#N)cc1 | 2.45 µM | > 100 µM | 0.219 µM | 0.845 µM | 1.99 µM | > 85.9 µM | 1.22 µM | > 100 µM | 0.379 µM | 2.55 µM | 0.457 µM | 21.1 µM | 12.8 µM | > 100 µM | 3.22 µM | > 100 µM | – | – |
| OCC#Cc1ccccc1C#Cc1ccccc1 | 3.95 µM | > 100 µM | 15.9 µM | 31.8 µM | 10.8 µM | 22.9 µM | 14.9 µM | 28.1 µM | 14.8 µM | 27.9 µM | 15.3 µM | 28.6 µM | 20.6 µM | 38.7 µM | 16.6 µM | 33.9 µM | – | – |
| COc1cc(NCc2ccc3oc(=O)c(-c4ccccc4)nc3c2)cc(OC)c1OC | – | > 10 µM | – | > 10 µM | – | > 10 µM | – | > 10 µM | – | > 10 µM | – | > 10 µM | – | > 10 µM | – | > 10 µM | – | – |
| Cc1c2c(nn1-c1ccc(S(=O)(=O)/N=C3\SCCC(=O)N3c3ccccc3)cc1)-c1ccccc1CC2 | > 100 µM | > 100 µM | 95.9 µM | > 100 µM | > 100 µM | > 100 µM | > 100 µM | > 100 µM | > 100 µM | > 100 µM | > 100 µM | > 100 µM | > 100 µM | > 100 µM | > 100 µM | > 100 µM | – | – |
| Cc1ccc(S(=O)(=O)N/N=C/C2(c3ccccc3)c3ccccc3-c3ccccc32)cc1 | – | > 100 µM | – | 23.9 µM | – | 20.2 µM | – | 88.3 µM | – | 27.3 µM | – | 20.3 µM | – | 73 µM | – | 39.8 µM | – | – |
| CCOC(=O)C(=C=C=C(c1ccccc1)c1ccccc1)C(=O)OCC | – | 30.8 µM | – | – | – | 46.1 µM | – | 36.7 µM | – | 37.7 µM | – | 38.6 µM | – | 55.4 µM | – | 50.3 µM | 40.7 µM | 37.7 µM |
| CCN1c2ccccc2C(C(SC)S(=O)(=O)c2ccc(C)cc2)c2c1[nH]c(=O)n(C)c2=O (stereo unspecified) | – | > 100 µM | – | > 100 µM | – | > 100 µM | – | – | – | > 100 µM | – | > 100 µM | – | > 100 µM | – | > 100 µM | > 100 µM | > 100 µM |
| C=C1C(=O)O[C@H]2[C@H]1CC/C(COC(=O)c1c[nH]c3ccccc13)=C\CC[C@@]1(C)O[C@@H]21 | 0.282 µM | 1.45 µM | 0.204 µM | 0.499 µM | 0.477 µM | 2.36 µM | 0.215 µM | 0.592 µM | 0.185 µM | 0.388 µM | 0.193 µM | 0.459 µM | 1.3 µM | 2.91 µM | 2.24 µM | 5.59 µM | – | – |
| OC(c1nc2ccccc2[nH]1)C(O)C(O)C(O)c1nc2ccccc2[nH]1 (stereo unspecified) | – | > 100 µM | – | > 100 µM | – | > 100 µM | – | > 100 µM | – | > 100 µM | – | > 100 µM | – | > 100 µM | – | > 100 µM | – | – |
| CC1=CC(O)(c2ccc(-c3ccccc3Cl)cc2)OC1=O (stereo unspecified) | – | > 100 µM | – | > 100 µM | – | > 100 µM | – | > 100 µM | – | > 100 µM | – | – | – | > 100 µM | – | > 100 µM | > 100 µM | > 100 µM |
| CCCCCCCC(=O)SCC/C=C/[C@@H]1CC(=O)NCc2cc(ccn2)C2=N[C@@](C)(CS2)C(=O)N[C@@H](C(C)C)C(=O)O1 | 0.0133 µM | > 28.7 µM | 0.0117 µM | 0.051 µM | 0.0169 µM | 2.41 µM | 0.0433 µM | 0.434 µM | 0.0062 µM | 0.0507 µM | 0.00468 µM | 0.0466 µM | 0.109 µM | > 33.3 µM | 0.00841 µM | 0.0716 µM | – | – |
| CN(C(=O)c1ccc(C(F)(F)F)cc1)c1ccc(Oc2ccc3c(c2)cc(C(=O)N2CCN(Cc4ccc(OC(F)F)cc4)CC2)n3C)nc1 | 0.881 µM | > 100 µM | < 0.0213 µM | 4.82 µM | 35.9 µM | > 100 µM | > 100 µM | > 100 µM | 3.96 µM | > 100 µM | < 0.01 µM | > 100 µM | 34.9 µM | > 100 µM | > 100 µM | > 100 µM | – | – |
| Cc1cc(/C=C/c2ccc3cc(N(C)C)ccc3[n+]2C)c(C)n1-c1ccccc1 | 0.193 µM | 2.52 µM | 0.0835 µM | 0.226 µM | 0.158 µM | 0.843 µM | 0.596 µM | 1.74 µM | 0.277 µM | 1.27 µM | 0.0908 µM | 2.69 µM | 0.161 µM | 5.97 µM | 0.142 µM | 1 µM | – | – |
| O=c1c2sccc2n(CC2COc3ccccc3O2)c(=O)n1O (stereo unspecified) | 21.3 µM | > 100 µM | 17.1 µM | 61.1 µM | 9.21 µM | 86 µM | 20.5 µM | > 100 µM | 14.6 µM | 46.4 µM | 6.54 µM | 29.2 µM | 12.8 µM | > 100 µM | 32.8 µM | > 100 µM | – | – |
